Reference: US9981945B2, “Pyrimidine derivatives as CFTR modulators” (NuBridge BioSciences, priority 2015, dated 2018)

Target: T1, ΔF508 mutant CFTR (Homo sapiens, UniProt P13569, DEL508-508)
T1 construct: expressed in transfected cells; host or cells: Fischer rat thyroid (FRT) cells
Assay: Fluorescence (YFP halide quenching) assay of ΔF508 mutant CFTR activity in FRT cells
Type: cell-based
Set-up: key: fold of mean activity with forskolin alone (I− quenching rate)
Details: FRT cells expressing ΔF508-CFTR and YFP-H148Q/I152L, rescued at 27° C. 20-24 h; forskolin 20 μM + test compound 20 μM for 20 min; I− influx rate normalized to forskolin alone
Source text: The ΔF508 mutant CFTR activities of the CFTR modulators are detected using the Fluorescence Assay developed by Pedemonte (Pedemonte N., et al., Antihypertensive 1,4-dihydropyridines as correctors of the cystic fibrosis transmembrane conductance regulator channel gating defect caused by cystic fibrosis mutations, Mol. Pharmacol., 2005, 68, 1736-1746).
Fischer rat thyroid (FRT) cells, stably transfected with ΔF508 were retransfected with the YFP-H148Q/I152L fluorescent protein. The cells were plated (100,000 cells/well) on black 96-well microplates with clear plastic bottom (Corning Life Sciences, Acton, Mass.).
The 96-well microplates containing FRT cells expressing F508-CFTR and the halide-sensitive YFP were incubated at 27° C. for 20 to 24 h to allow rescue of the mutant protein to the plasma membrane. After incubation, cells were washed with PBS (containing 137 mM NaCl, 2.7 mM KCl, 8.1 mM Na2HPO4, 1.5 mM KH2PO4, 1 mM CaCl2, and 0.5 mM MgCl2) and stimulated for 20 min with forskolin (20 μM) and test compounds (20 μM) in a final volume of 60 μl. Microplates were then transferred to a microplate reader for CFTR activity determination. Each assay consisted of a continuous 14-s fluorescence reading (5 points per second) with 2 s before and 12 s after injection of 165 μl of an iodide-containing solution (PBS with Cl^− replaced by I^−). Final iodide concentration in the wells was 100 mM. […] To determine I^− influx rate, the final 11 s of the data for each well were fitted with an exponential function to extrapolate initial slope. CFTR activity was determined by measuring the rate of fluorescence quenching induced by extracellular addition of I^−. Data are normalized to the mean activity measured in the presence of forskolin alone.

T1 sequence (P13569 with tags, fused parts or gaps DEL508-508): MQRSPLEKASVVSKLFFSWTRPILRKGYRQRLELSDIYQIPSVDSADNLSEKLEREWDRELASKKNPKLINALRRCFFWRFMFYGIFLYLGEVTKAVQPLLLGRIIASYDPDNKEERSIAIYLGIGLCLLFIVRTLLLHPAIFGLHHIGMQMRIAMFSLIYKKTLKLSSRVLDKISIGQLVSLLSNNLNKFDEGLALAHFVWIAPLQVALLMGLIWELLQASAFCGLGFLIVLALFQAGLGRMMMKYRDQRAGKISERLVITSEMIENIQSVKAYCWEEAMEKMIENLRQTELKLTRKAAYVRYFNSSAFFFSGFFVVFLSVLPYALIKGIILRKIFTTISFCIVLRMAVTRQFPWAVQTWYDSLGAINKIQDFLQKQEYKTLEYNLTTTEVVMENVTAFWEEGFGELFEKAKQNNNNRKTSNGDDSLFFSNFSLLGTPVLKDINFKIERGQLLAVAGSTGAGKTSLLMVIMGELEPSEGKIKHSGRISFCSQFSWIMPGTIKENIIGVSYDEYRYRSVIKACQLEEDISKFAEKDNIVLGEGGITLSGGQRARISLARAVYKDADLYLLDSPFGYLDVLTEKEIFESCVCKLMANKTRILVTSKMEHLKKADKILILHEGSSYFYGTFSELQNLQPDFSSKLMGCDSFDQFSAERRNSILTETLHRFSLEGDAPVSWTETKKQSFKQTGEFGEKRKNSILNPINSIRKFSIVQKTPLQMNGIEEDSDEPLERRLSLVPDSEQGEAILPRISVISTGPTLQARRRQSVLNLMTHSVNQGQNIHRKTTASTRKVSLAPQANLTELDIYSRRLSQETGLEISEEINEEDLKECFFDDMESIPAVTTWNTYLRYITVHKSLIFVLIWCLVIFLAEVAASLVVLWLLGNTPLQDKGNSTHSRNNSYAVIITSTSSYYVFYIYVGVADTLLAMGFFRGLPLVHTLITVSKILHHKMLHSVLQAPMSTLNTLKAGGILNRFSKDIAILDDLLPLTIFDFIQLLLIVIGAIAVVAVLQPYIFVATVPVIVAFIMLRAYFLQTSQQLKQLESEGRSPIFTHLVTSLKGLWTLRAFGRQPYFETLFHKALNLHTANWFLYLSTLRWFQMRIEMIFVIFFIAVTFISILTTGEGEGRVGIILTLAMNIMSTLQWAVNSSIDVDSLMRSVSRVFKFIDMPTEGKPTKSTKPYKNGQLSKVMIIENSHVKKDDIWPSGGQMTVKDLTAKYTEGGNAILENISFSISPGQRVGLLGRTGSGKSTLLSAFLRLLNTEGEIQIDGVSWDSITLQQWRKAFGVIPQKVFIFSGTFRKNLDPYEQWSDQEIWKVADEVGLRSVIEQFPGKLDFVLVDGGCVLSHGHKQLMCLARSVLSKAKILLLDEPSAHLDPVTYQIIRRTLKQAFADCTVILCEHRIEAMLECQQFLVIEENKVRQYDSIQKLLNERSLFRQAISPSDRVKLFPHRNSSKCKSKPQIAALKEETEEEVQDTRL

Row | Structure (SMILES) | CFTR Activity
1 | Cl.O=C(Nc1cncnc1OC1CCCNCC1)c1ccc(C(F)(F)F)c(-c2c(F)cccc2F)n1 (centres unmarked) [Example 42, N-(4-(azepan-4-yloxy)pyrimidin-5-yl)-6-(2,6-difluorophenyl)-5-(trifluoromethyl)picolinamide hydrochloride] | 2.4
2 | Cl.O=C(Nc1cncnc1OCC1CCNCC1)c1ccc(C(F)(F)F)c(-c2c(F)cccc2F)n1 [Example 43, 6-(2,6-difluorophenyl)-N-(4-(piperidin-4-ylmethoxy)pyrimidin-5-yl)-5-(trifluoromethyl)picolinamide hydrochloride] | 1.3
3 | Cl.O=C(Nc1cncnc1OCC1CNC1)c1ccc(C(F)(F)F)c(-c2c(F)cccc2F)n1 [Example 44, N-(4-(azetidin-3-ylmethoxy)pyrimidin-5-yl)-6-(2,6-difluorophenyl)-5-(trifluoromethyl)picolinamide hydrochloride] | 1.8
4 | Cl.O=C(Nc1cncnc1OC1CCNCC1)c1ccc(C(F)(F)F)c(-c2c(F)cccc2F)n1 [Example 45, 6-(2,6-difluorophenyl)-N-(4-(piperidin-4-yloxy)pyrimidin-5-yl)-5-(trifluoromethyl)picolinamide hydrochloride] | 2.7
5 | Cl.N[C@H]1CC[C@H](Oc2ncncc2NC(=O)c2ccc(C(F)(F)F)c(-c3c(F)cccc3F)n2)CC1 [Example 46, N-(4-(((1r,4r)-4-aminocyclohexyl)oxy)pyrimidin-5-yl)-6-(2,6-difluorophenyl)-5-(trifluoromethyl)picolinamide hydrochloride] | 3.2
6 | O=C(Nc1cncnc1OCC1CCOCC1)c1ccc(C(F)(F)F)c(-c2c(F)cccc2F)n1 [Example 47, 6-(2,6-difluorophenyl)-N-(4-((tetrahydro-2H-pyran-4-yl)methoxy)pyrimidin-5-yl)-5-(trifluoromethyl)picolinamide] | 0.1
7 | Cl.Nc1cc(C(F)(F)F)c(-c2c(F)cccc2F)nc1C(=O)Nc1cncnc1OC1CCCNCC1 (centres unmarked) [Example 48, 3-amino-N-(4-(azepan-4-yloxy)pyrimidin-5-yl)-6-(2,6-difluorophenyl)-5-(trifluoromethyl)picolinamide hydrochloride] | 4.1
8 | Cl.Nc1cc(C(F)(F)F)c(-c2c(F)cccc2F)nc1C(=O)Nc1cncnc1OCC1CCNCC1 [Example 49, 3-amino-6-(2,6-difluorophenyl)-N-(4-(piperidin-4-ylmethoxy)pyrimidin-5-yl)-5-(trifluoromethyl)picolinamide hydrochloride] | 3.2
9 | Cl.Nc1cc(C(F)(F)F)c(-c2c(F)cccc2F)nc1C(=O)Nc1cncnc1OCC1CNC1 [Example 50, 3-amino-N-(4-(azetidin-3-ylmethoxy)pyrimidin-5-yl)-6-(2,6-difluorophenyl)-5-(trifluoromethyl)picolinamide hydrochloride] | 2.9
10 | Cl.Nc1cc(C(F)(F)F)c(-c2c(F)cccc2F)nc1C(=O)Nc1cncnc1OC1CCNCC1 [Example 51, 3-amino-6-(2,6-difluorophenyl)-N-(4-(piperidin-4-yloxy)pyrimidin-5-yl)-5-(trifluoromethyl)picolinamide hydrochloride] | 4.0
11 | Cl.Nc1cc(C(F)(F)F)c(-c2c(F)cccc2F)nc1C(=O)Nc1cncnc1O[C@H]1CC[C@H](N)CC1 [Example 52, 3-amino-N-(4-(((1r,4r)-4-aminocyclohexyl)oxy)pyrimidin-5-yl)-6-(2,6-difluorophenyl)-5-(trifluoromethyl)picolinamide hydrochloride] | 4.3
12 | Cl.Nc1cc(C(F)(F)F)c(-c2ccccc2)nc1C(=O)Nc1cncnc1OC1CCNC1 (centres unmarked) [Example 53, 3-amino-6-phenyl-N-(4-(pyrrolidin-3-yloxy)pyrimidin-5-yl)-5-(trifluoromethyl)picolinamide hydrochloride] | 2.4
13 | Cl.NCC(CCl)COc1ncncc1NC(=O)c1ccc(C(F)(F)F)c(-c2c(F)cccc2F)n1 (centres unmarked) [Example 54, N-(4-(3-amino-2-(chloromethyl)propoxy)pyrimidin-5-yl)-6-(2,6-difluorophenyl)-5-(trifluoromethyl)picolinamide hydrochloride] | 2.0
14 | Cl.NCC(CCl)COc1ncncc1NC(=O)c1nc(-c2c(F)cccc2F)c(C(F)(F)F)cc1N (centres unmarked) [Example 55, 3-amino-N-(4-(3-amino-2-(chloromethyl)propoxy)pyrimidin-5-yl)-6-(2,6-difluorophenyl)-5-(trifluoromethyl)picolinamide hydrochloride] | 4.4
15 | Cl.NCC(CO)COc1ncncc1NC(=O)c1ccc(F)c(-c2c(F)cccc2F)n1 (centres unmarked) [Example 56, N-(4-(3-amino-2-(hydroxymethyl)propoxy)pyrimidin-5-yl)-6-(2,6-difluorophenyl)-5-fluoropicolinamide hydrochloride] | 2.5
16 | Cl.NCC(CO)COc1ncncc1NC(=O)c1nc(-c2c(F)cccc2F)c(F)cc1N (centres unmarked) [Example 57, 3-amino-N-(4-(3-amino-2-(hydroxymethyl)propoxy)pyrimidin-5-yl)-6-(2,6-difluorophenyl)-5-fluoropicolinamide hydrochloride] | 2.1
17 | Cl.NCC(CO)COc1ncncc1NC(=O)c1ccc(C(F)(F)F)c(-c2c(F)cccc2F)n1 (centres unmarked) [Example 58, N-(4-(3-amino-2-(hydroxymethyl)propoxy)pyrimidin-5-yl)-6-(2,6-difluorophenyl)-5-(trifluoromethyl)picolinamide hydrochloride] | 2.8
18 | Cl.NCC(CO)COc1ncncc1NC(=O)c1nc(-c2c(F)cccc2F)c(C(F)(F)F)cc1N (centres unmarked) [Example 59, 3-amino-N-(4-(3-amino-2-(hydroxymethyl)propoxy)pyrimidin-5-yl)-6-(2,6-difluorophenyl)-5-(trifluoromethyl)picolinamide hydrochloride] | 3.0
19 | Cl.NC1CCCC(Oc2ncncc2NC(=O)c2ccc(C(F)(F)F)c(-c3c(F)cccc3F)n2)C1 (centres unmarked) [Example 60, N-(4-((3-aminocyclohexyl)oxy)pyrimidin-5-yl)-6-(2,6-difluorophenyl)-5-(trifluoromethyl)picolinamide hydrochloride] | 4.8
20 | Cl.Nc1cc(C(F)(F)F)c(-c2c(F)cccc2F)nc1C(=O)Nc1cncnc1OC1CCCC(N)C1 (centres unmarked) [Example 61, 3-amino-N-(4-((3-aminocyclohexyl)oxy)pyrimidin-5-yl)-6-(2,6-difluorophenyl)-5-(trifluoromethyl)picolinamide hydrochloride] | 4.2
